What was measured:
[1] = tested on: hair cell (neuromast) of Zebrafish; assay: Staining of hair cell (neuromast) of Zebrafish juveniles with probe, fluorescence stereomicroscope image visually evaluated; type: in vivo; design: Fluorescence intensity: key to the marks not given beside the values; conditions: dye concentration 1 μg/mL; for Pattern of the neuromast stained (FIGS. 1 to 3): Zebrafish juveniles, in words; for Fluorescence intensity / Staining pattern: 1 hour, Zebrafish juveniles Day 7 after fertilization
Experimental: A staining compound (1) was dissolved in DMSO to prepare a stock solution at a concentration of 1 mg/mL. The stock solution was diluted with distilled water to prepare a hair cell staining solution 1 having a dye concentration of 1 μg/mL. Further, Egg Water was prepared by dissolving artificial seawater SEALIFE (manufactured by Marinetech Co., Ltd.) in distilled water at a concentration of 60 mg/L. Five juveniles (embryos on Day 7 after fertilization) of Zebrafish were placed into any one of wells of a 24-well multiwell plate together with feeding water. The feeding water was discharged and 1 mL of the hair cell staining solution 1 was added. After the whole had been left to stand for 1 hour, the hair cell staining solution 1 in the well was discharged and replaced by 1 mL of fresh Egg Water. In addition, such an operation that Egg Water was discharged and replaced by 1 mL of fresh Egg Water was repeated twice. One of the juveniles was taken out from the well onto a dish, the motion of the juvenile was restricted by addition of methylcellulose, and a fluorescence image was captured with a fluorescence stereomicroscope. MZ16FA manufactured by Leica Microsystems K.K. was used as a stereoscopic microscope.
An image pickup unit (a digital camera DP72 for a microscope manufactured by Olympus Corporation) of a fluorescence stereomicroscope was remodeled by removing an IR cut filter so as to capture a fluorescence image in a near-infrared wavelength region.

[2] = Excitation and fluorescence emission wavelength measured with fluorescence spectrophotometer; type: physicochemical; conditions: aqueous solution, 10 mg/mL DMSO solution diluted 500-fold with purified water

Compound	Pattern of the neuromast stained (FIGS. 1 to 3) [1]	Excitation wavelength λex [2] [nm]	Fluorescence emission wavelength λem [2] [nm]	Fluorescence intensity [1]	Staining pattern [1]
O=S(=O)(O)CCN1/C(=C\C=C\c2oc3ccc(-c4ccccc4)cc3[n+]2CCS(=O)(=O)O)Oc2ccc(-c3ccccc3)cc21 [Staining compound 25]	a portion with a smaller neuromast is selectively stained				
CCN1C=C/C(=C/C=C/c2oc3ccccc3[n+]2CC)c2ccccc21 [Staining compound 50]	a portion with a bigger neuromast is selectively stained				
COc1ccc(N2c3ccc(/C=C/C4=[N+](C)c5ccccc5C4(C)C)cc3C3CCCC32)cc1 (stereo not drawn) [Staining compound 53]	both a portion with a bigger neuromast and a portion with a smaller neuromast are simultaneously stained				
O=C(O)C[n+]1c(/C=C/c2ccc3c(c2)C2CCCC2N3c2ccc(C=C(c3ccccc3)c3ccccc3)cc2)oc2ccccc21 (stereo not drawn) [compound 1]		570	657	+++	
COc1ccc2cc(N3c4ccc(/C=C/c5sc6ccccc6[n+]5CC(=O)O)cc4C4CCCC43)ccc2c1 (stereo not drawn) [compound 4]		401	516	+++	
O=C(O)C[n+]1c(/C=C/c2ccc3c(c2)C2CCCC2N3c2ccccc2)sc2ccccc21 (stereo not drawn) [compound 6]		545	636	+++	
COc1ccc(N2c3ccc(/C=C/c4sc5ccccc5[n+]4CC(=O)O)cc3C3CCCC32)cc1 (stereo not drawn) [compound 8]		560	677	+++	
O=C(O)C[n+]1c(/C=C/c2ccc3c(c2)C2CCCC2N3Cc2ccccc2)sc2ccccc21 (stereo not drawn) [compound 15]		566	611	+++	
CCC(=C\c1oc2ccc(-c3ccccc3)cc2[n+]1CC)/C=C1/Oc2ccc(-c3ccccc3)cc2N1CC [compound 16]		459	564	+++	S
O=S(=O)(O)CCN1/C(=C\C=C\c2oc3ccc(-c4ccccc4)cc3[n+]2CCS(=O)(=O)O)Oc2ccc(-c3ccccc3)cc21 [compound 25]		470	558	+++	S
CC(=C\c1oc2ccccc2[n+]1CCC(=O)O)/C=C1/Oc2ccccc2N1CCC(=O)O [compound 28]		429	503	+++	
CCC(=C\c1sc2ccccc2[n+]1CC)/C=C1/Sc2ccccc2N1CC [compound 39]		563	569	+++	
CCC(=C\c1sc2c3ccccc3ccc2[n+]1CC)/C=C1/Sc2c(ccc3ccccc23)N1CC [compound 40]		344	381	+++	
CN1/C(=C\C=C\C2=[N+](C)c3ccccc3C2(C)C)C(C)(C)c2ccccc21 [compound 43]		473	564	+++	
CCN1/C(=C\C(C)=C\c2sc3ccccc3[n+]2CC)Sc2ccccc21 [compound 45]		560	628	+++	
CCN1/C(=C\C(C)=C\c2sc3c4ccccc4ccc3[n+]2CC)Sc2c1ccc1ccccc21 [compound 47]		354	469	+++	
CCN1C=C/C(=C/C=C/c2oc3ccccc3[n+]2CC)c2ccccc21 [compound 50]		571	620	+++	
CC1(C)C(/C=C/c2ccc3c(c2)C2CCCC2N3c2ccc(C=C(c3ccccc3)c3ccccc3)cc2)=[N+](CCC(=O)O)c2ccccc21 (stereo not drawn) [compound 51]		611	720	+++	S
COc1ccc(N2c3ccc(/C=C/C4=[N+](C)c5ccccc5C4(C)C)cc3C3CCCC32)cc1 (stereo not drawn) [compound 53]		614	669	+++	
CC/N=c1\cc2oc3cc(NCC)c(C)cc3c(-c3ccccc3C(=O)OCC)c-2cc1C [compound 54]		528	550	+++	
CCCCNS(=O)(=O)c1ccc(-c2c3ccc(=[N+](CC)CC)cc-3oc3cc(N(CC)CC)ccc23)c(S(=O)(=O)O)c1.[Na+] [compound 57]		570	589	+++	
O=S(=O)(O)c1ccccc1-c1c2cc/c(=N/CCO)cc-2oc2cc(NCCO)ccc12 [compound 58]		480	509	+++	
CCC[N+](CCC)=c1ccc2c(-c3ccccc3S(=O)(=O)O)c3ccc(Nc4c(C)cccc4C)cc3oc-2c1.[Na+] [compound 60]		509	578	+++	
CCCC/N=c1/ccc2c(-c3ccccc3S(=O)(=O)O)c3ccc(NCCCC)cc3oc-2c1 [compound 63]		490	560	+++	
CCN1/C(=C/C=C/C=C/C=C/C2=[N+](CC)c3ccccc3C23CCCCC3)C2(CCCCC2)c2ccccc21 [compound 67]		750	780	+++	
CN1/C(=C/C=C/C=C/C=C/C2=[N+](C)c3ccccc3C2(C)C)C(C)(C)c2ccccc21 [compound 68]		730	760	+++	
CN1\C(=C/C=C/C=C/C2=[N+](C)c3ccc4ccccc4c3C2(C)C)C(C)(C)c2c1ccc1ccccc21 [compound 69]		670	700	+++	
CCN1C=C/C(=C\C=c2\s/c(=C/c3sc4ccccc4[n+]3CC)n(CC)c2=O)c2ccccc21 [compound 70]		660	690	+++	

Reference: patent US20130219529A1, “PROBE FOR A HAIR CELL, AND LABELLING METHOD FOR A HAIR CELL USING THE PROBE FOR A HAIR CELL” (CANON KABUSHIKI KAISHA, priority 2008, published 2013)
